In patent US7202276B2, “Use of 13-HODE as a regulator of vascular biocompatibility and an inhibitor of cell hyperplasia” (1411198 Ontario Limited, priority 2000, dated 2007):
Like-named read-outs stand apart in the source and are kept apart here. One block for each molecule: values may come before it.

Experiments:
[1] = tested on: platelet/injured VW interactions; settings: 3.2 gm daily for 30 days; cited from earlier work
[2] = 3.2 gm daily (20 capsules) for 30 days; cited from earlier work
Sarcoma 180 tumors = settings: given orally; cited from earlier work
[3] = Stability of 13-HODE dosage forms; assay type: physicochemical; settings: dissolved into a triglyceride oil carrier or an ester
Description: A real problem is presented by the fact that active daily doses of 13-HODE are in the 50 to 1,000 μg/kg/day range. […] That translates into a 7 mg/day dose for a 70 kg person. Since doses for humans are often considerably lower than doses for animals because of a weight/body surface area scaling, a daily dose of as little as 5 mg or less is really possible. Formulating an oily liquid is such small doses is a problem. It could be absorbed into tabletting materials and tabletted and coated, or micro-encapsulated by methods well known to those skilled in the art. […] Other triglyceride oils such as vegetable oil, including sunflower, safflower, soy, evening primrose, borage, coconut or palm oil, or cottonseed, rapeseed, olive, fish body or fish liver oils may all be used for this purpose. Particularly useful esters for this purpose are esters of fatty acids with 16–26 carbon atoms and one or more double bonds in the chain.

[4] = Cell free plasma 13-HODE levels in rabbits treated orally with 13-HODE; assay type: in vivo, New Zealand white rabbits
Description: (§1) New Zealand white rabbits (half males/half females; 2.5–2.9 kg) were used throughout. Rabbits were treated with 100, 400 or 1000 μg/kg/day of purified 13-HODE suspended in corn oil or ethyl-eicosapentaenoic acid (EPA), or with an equivolume of either suspending vehicle (total volume 1 ml) for 7 days. Serial blood samples were collected before, during and after treatment to assess the levels of 13-HODE in plasma. On day 7, the treatments were stopped. At that time, the rabbits were anaesthetised with a combination of Atravet, Ketamine, Vetrepham and glycopyrolate, given subcutaneously. Both carotid arteries of anaesthetised rabbits were isolated between 2 temporary ligatures, first by applying the proximal ligature, then allowing the blood to drain from the segment, and then applying the distal ligature. A 24-gauge angiocath attached to tubing filled with sterile saline and connected to a pressure manometer, was inserted into the isolated segment. Then the segment was filled with the saline to a pressure of 600 mm Hg which was maintained for 5 minutes. The pressure was relieved, and the angiocath and ligatures were removed, thereby allowing for blood flow restoration. Cessation of bleeding from the needle puncture site was achieved within 3 minutes without any manual manipulation. The incisions were sutured closed with 000 proline. The rabbits were injected intramuscularly with Temgesic to minimize any pain and with 12.5 mg Baytril as an antibiotic, and then allowed to recover. This injury procedure results in endothelial denudation and the exposure of a thrombogenic surface within 1 hour of restoration of blood flow, followed by SMC proliferation and intimal hyperplasia, which plateaus at □ 4 weeks and which is sustained for ≧12 weeks (Buchanan M R, Brister S J: 1998: Buchanan M R et al. 1999).
Two, four or twelve weeks later, the rabbits were re-anaesthetised and their injured carotid arteries were again isolated. Segments of injured and uninjured carotid artery were harvested and processed histologically to assess VW hyperplasia. Other VW segments and blood samples were collected and processed for VW and plasma 13-HODE levels.

[5] = Vessel wall (VW) 13-HODE levels in rabbits treated orally with 13-HODE; assay type: in vivo, New Zealand white rabbits; settings: suspended in ethyl-EPA, all treatment levels
Description: as §1, with “The rabbits were injected intramuscularly with Temgesic to minimize any pain and with 12.5 mg Baytril as an antibiotic, and then allowed to recover. This injury procedure results in endothelial denudation and the exposure of a thrombogenic surface within 1 hour of restoration of blood flow, followed by SMC proliferation and intimal hyperplasia, which plateaus at □ 4 weeks and which is sustained for ≧12 weeks (Buchanan M R, Brister S J: 1998: Buchanan M R et al. 1999).” left out

[6] = tested on: VW intimal hyperplasia of injured carotid arteries; experiment: Intimal hyperplasia after carotid artery pressure injury in rabbits; assay type: in vivo, New Zealand white rabbits; settings: 7 day course of 100 μg/kg/day, in either corn oil or ethyl-EPA, p<0.001
Description: as §1, with “The rabbits were injected intramuscularly with Temgesic to minimize any pain and with 12.5 mg Baytril as an antibiotic, and then allowed to recover. This injury procedure results in endothelial denudation and the exposure of a thrombogenic surface within 1 hour of restoration of blood flow, followed by SMC proliferation and intimal hyperplasia, which plateaus at □ 4 weeks and which is sustained for ≧12 weeks (Buchanan M R, Brister S J: 1998: Buchanan M R et al. 1999).” left out

[7] = tested on: platelet/injured VW interactions; settings: dose comparable to that used clinically; cited from earlier work
intimal SMC hyperplasia = settings: 1 mg/kg/day for 7 days before VW injury, 4 weeks after VW injury; cited from earlier work
[8] = stroke, myocardial infarction, transient ischemic attacks; cited from earlier work

Compound: CCCCC/C=C\C/C=C\CCCCCCCC(=O)O [linoleic acid, Octa-deca-9Z, 12Z-dienoic acid]
- decrease in platelet/injured VW interactions [1]: > 2 fold
- increase in VW 13-HODE levels [2]: 2 fold

Compound: CCCCC/C=C\C=C\C(O)CCCCCCCC(=O)O (stereo not shown) [9-HODE, 9-hydroxy-10(E)-12(Z) octadecadienoic acid]
- minimum effective dose for inhibiting the rate of tumour growth (Sarcoma 180 tumors): 55 mg/kg/day

- stability of the dosage form [3]: stable without degradation
- time to significantly elevated cell-free plasma 13-HODE level ([4]; 1,000 μg/kg/day oral): ≤ 3 days
- time cell-free plasma 13-HODE level remained elevated ([4]; 1,000 μg/kg/day oral, treatment stopped after 7 days): 4 weeks
- effect on plasma 13-HODE levels of increasing the dose ([4]; 1,000 μg/kg/day vs 100 μg/kg/day, corn oil): no further effect
- increase in the plasma 13-HODE levels ([4]; after 7 days of oral 100 μg/kg/day, suspended in corn oil): three-fold increase
- half life ([4]; orally administered): long half life
- oral absorption ([4]; orally administered): well absorbed
- absolute levels of plasma 13-HODE, compared with corn oil ([4]; suspended in ethyl-EPA, all treatment levels): lower in all treatment levels tested
Compound: CCCCCC(O)/C=C/C=C\CCCCCCCC(=O)O (stereo not shown) [13-HODE, 13-hydroxyoctadeca-9Z, 11E-dienoic acid]
- absolute levels of VW 13-HODE, compared with corn oil [5]: somewhat lower at all treatment levels tested
- intimal VW hyperplasia [6]: significantly inhibited

Compound: OCCN(CCO)c1nc(N2CCCCC2)c2nc(N(CCO)CCO)nc(N3CCCCC3)c2n1 [Persantine]
- decrease in platelet/injured VW interactions [7]: > 2 fold
- SMC hyperplasia (intimal SMC hyperplasia): inhibited

Compound: CC(=O)Oc1ccccc1C(=O)O [ASA]
- overall risk reduction [8]: ~25%
